Assays:
B. subtilis 168 [1] = experiment: Bliss interaction score (quartile over a dose matrix) (fitness difference); higher = more antagonism (negative = synergy)
Summary of the method: (§1)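 The Bliss score is observed minus expected fitness, where expected fitness is the product of the single-drug fitness values inferred from the combination data. Fitness is the OD595 at the onset of stationary phase over the plate's robust no-drug mean, capped at 1. Scores are summarised by quartiles over technical, biological and donor/recipient replicates.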

S. pneumoniae D39V = experiment: as above
Summary of the method: as §1

S. aureus DSM 20231 [2] = experiment: as above
Summary of the method: as §1

S. aureus Newman [3] = experiment: as above
Summary of the method: as §1

B. subtilis 168 [4] = experiment: fitness (endpoint OD595 vs no drug) (fraction); higher = more growth
Summary of the method: (§2)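 Each well of a 384-well plate received 30 µl of culture at OD595 0.01, or 55 µl for S. pneumoniae. TSB, LB Lennox or CY served as media at 37 °C. OD595 was taken every 30 min for 14 h and corrected by subtracting the first reading. Fitness is the optical density at stationary-phase entry divided by the robust mean of no-drug controls, capped at 1.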

S. aureus DSM 20231 [5] = experiment: as above
Summary of the method: as §2

S. aureus Newman [6] = experiment: as above
Summary of the method: as §2
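For Bliss interaction score (quartile over a dose matrix) in this document: first quartile when negative (synergy) and third quartile when positive (antagonism).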

CC[C@H]1OC(=O)[C@H](C)[C@@H](O[C@H]2C[C@@](C)(OC)[C@@H](O)[C@H](C)O2)[C@H](C)[C@@H](O[C@@H]2O[C@H](C)C[C@H](N(C)C)[C@H]2O)[C@](C)(O)C[C@@H](C)CN(C)[C@H](C)[C@@H](O)[C@]1(C)O [Azithromycin] + CCN(CC)CCOC(=O)c1ccc(N)cc1 [Procaine]
Details	Bliss interaction score
B. subtilis 168 [1]	-0.0562
S. aureus DSM 20231 [2]	-0.0967
S. aureus Newman [3]	-0.0635
S. pneumoniae D39V	0.0533

fitness
Details	partner 85.5 µg/mL	partner 171 µg/mL	partner 342 µg/mL
B. subtilis 168 [4], first compound 0.25 µg/mL	0.867	0.9	0.861
B. subtilis 168 [4], first compound 0.5 µg/mL	0.777	0.778	0.787
S. aureus DSM 20231 [5], first compound 0.125 µg/mL	–	0.905	0.912
S. aureus DSM 20231 [5], first compound 0.5 µg/mL	0.441	–	0.426
S. aureus Newman [6], first compound 0.125 µg/mL	0.871	0.864	0.843
S. aureus Newman [6], first compound 0.25 µg/mL	0.803	0.877	0.779
S. aureus Newman [6], first compound 0.5 µg/mL	0.408	–	0.401

CC[C@H]1OC(=O)[C@H](C)[C@@H](O[C@H]2C[C@@](C)(OC)[C@@H](O)[C@H](C)O2)[C@H](C)[C@@H](O[C@@H]2O[C@H](C)C[C@H](N(C)C)[C@H]2O)[C@](C)(O)C[C@@H](C)CN(C)[C@H](C)[C@@H](O)[C@]1(C)O [Azithromycin] + CN1C2=CC=CC=C2N=C3C1=CC=CC3=O [Pyocyanin]
Details	Bliss interaction score
B. subtilis 168 [1]	-0.0732
S. aureus DSM 20231 [2]	-0.0596
S. aureus Newman [3]	0.0847
S. pneumoniae D39V	-0.0827

fitness
Details	partner 1.25 µg/mL	partner 2.5 µg/mL	partner 5 µg/mL
B. subtilis 168 [4], first compound 0.25 µg/mL	0.838	0.792	0.648
B. subtilis 168 [4], first compound 0.5 µg/mL	–	0.631	–
S. aureus DSM 20231 [5], first compound 0.125 µg/mL	0.851	0.789	0.694
S. aureus DSM 20231 [5], first compound 0.25 µg/mL	0.797	0.8	0.666
S. aureus Newman [6], first compound 0.125 µg/mL	0.865	0.788	–
S. aureus Newman [6], first compound 0.25 µg/mL	0.856	0.759	–
S. aureus Newman [6], first compound 0.5 µg/mL	–	–	0.21

CC[C@H]1OC(=O)[C@H](C)[C@@H](O[C@H]2C[C@@](C)(OC)[C@@H](O)[C@H](C)O2)[C@H](C)[C@@H](O[C@@H]2O[C@H](C)C[C@H](N(C)C)[C@H]2O)[C@](C)(O)C[C@@H](C)CN(C)[C@H](C)[C@@H](O)[C@]1(C)O [Azithromycin] + CN(N=O)C(=O)N[C@@H](C=O)[C@@H](O)[C@H](O)[C@H](O)CO [Streptozotocin]
Details	Bliss interaction score
B. subtilis 168 [1]	0.0551
S. aureus DSM 20231 [2]	-0.0752
S. aureus Newman [3]	0.0643
S. pneumoniae D39V	0.0501

fitness
Details	partner 0.15 µg/mL	partner 0.3 µg/mL	partner 0.6 µg/mL
B. subtilis 168 [4], first compound 0.25 µg/mL	0.938	0.952	0.918
B. subtilis 168 [4], first compound 0.5 µg/mL	0.897	0.902	0.842
S. aureus DSM 20231 [5], first compound 0.125 µg/mL	0.796	0.742	0.703
S. aureus DSM 20231 [5], first compound 0.25 µg/mL	0.72	0.73	0.736
S. aureus DSM 20231 [5], first compound 0.5 µg/mL	0.37	0.293	–
S. aureus Newman [6], first compound 0.125 µg/mL	0.81	0.707	0.564
S. aureus Newman [6], first compound 0.25 µg/mL	0.811	0.76	0.657
S. aureus Newman [6], first compound 0.5 µg/mL	0.576	0.5	0.367

CC[C@H]1OC(=O)[C@H](C)[C@@H](O[C@H]2C[C@@](C)(OC)[C@@H](O)[C@H](C)O2)[C@H](C)[C@@H](O[C@@H]2O[C@H](C)C[C@H](N(C)C)[C@H]2O)[C@](C)(O)C[C@@H](C)CN(C)[C@H](C)[C@@H](O)[C@]1(C)O [Azithromycin] + CN[C@@H]1[C@H](O)[C@H](NC)[C@H]2O[C@@]3(O)C(=O)C[C@@H](C)O[C@H]3O[C@@H]2[C@H]1O [Spectinomycin]
Details	Bliss interaction score
B. subtilis 168 [1]	-0.0884
S. aureus DSM 20231 [2]	-0.107
S. aureus Newman [3]	-0.124
S. pneumoniae D39V	-0.0642

fitness
Details	partner 2 µg/mL	partner 4 µg/mL	partner 8 µg/mL	partner 16 µg/mL
B. subtilis 168 [4], first compound 0.25 µg/mL	0.918	0.895	0.815	–
B. subtilis 168 [4], first compound 0.5 µg/mL	0.849	0.816	–	–
S. aureus DSM 20231 [5], first compound 0.125 µg/mL	–	0.856	0.774	0.755
S. aureus DSM 20231 [5], first compound 0.25 µg/mL	–	0.788	0.771	0.644
S. aureus Newman [6], first compound 0.125 µg/mL	–	0.84	0.849	0.821
S. aureus Newman [6], first compound 0.25 µg/mL	–	0.818	0.812	0.689

fitness, one replicate
Details	first compound 0.125 µg/mL	first compound 0.25 µg/mL	first compound 0.5 µg/mL
S. aureus DSM 20231 [5], partner 32 µg/mL	0.658	0.348	0.0388
S. aureus DSM 20231 [5], partner 64 µg/mL	0.0503	0.0326	0.0093
S. aureus Newman [6], partner 32 µg/mL	0.401	0.165	0.0078
S. aureus Newman [6], partner 64 µg/mL	0.0378	0.0151	0.003

CC[C@H]1OC(=O)[C@H](C)[C@@H](O[C@H]2C[C@@](C)(OC)[C@@H](O)[C@H](C)O2)[C@H](C)[C@@H](O[C@@H]2O[C@H](C)C[C@H](N(C)C)[C@H]2O)[C@](C)(O)C[C@@H](C)CN(C)[C@H](C)[C@@H](O)[C@]1(C)O [Azithromycin] + CO/N=C(\C(=O)N[C@@H]1C(=O)N2C(C(=O)O)=C(COC(C)=O)CS[C@H]12)c1csc(N)n1 [Cefotaxime]
Details	Bliss interaction score
B. subtilis 168 [1]	-0.053
S. aureus DSM 20231 [2]	0.0492
S. aureus Newman [3]	-0.0321
S. pneumoniae D39V	0.0552

fitness
Details	first compound 0.125 µg/mL	first compound 0.25 µg/mL	first compound 0.5 µg/mL	first compound 1 µg/mL
B. subtilis 168 [4], partner 0.0625 µg/mL	–	0.654	0.631	–
B. subtilis 168 [4], partner 0.125 µg/mL	–	0.456	0.456	0.21
B. subtilis 168 [4], partner 0.25 µg/mL	–	0.349	0.358	0.177
B. subtilis 168 [4], partner 0.5 µg/mL	–	0.21	0.19	0.0636
B. subtilis 168 [4], partner 1 µg/mL	–	0.141	0.103	0.0233
B. subtilis 168 [4], partner 2 µg/mL	–	0.111	0.0792	0.037
S. aureus DSM 20231 [5], partner 0.078 µg/mL	0.744	0.768	0.554	–
S. aureus DSM 20231 [5], partner 0.156 µg/mL	0.672	0.762	0.511	–
S. aureus DSM 20231 [5], partner 0.312 µg/mL	0.6	0.668	0.487	–
S. aureus Newman [6], partner 0.078 µg/mL	0.722	0.754	0.549	–
S. aureus Newman [6], partner 0.156 µg/mL	0.587	0.588	–	–
S. aureus Newman [6], partner 0.625 µg/mL	–	–	0.0779	–
S. aureus Newman [6], partner 1.25 µg/mL	0.157	0.0373	0.0342	–
S. aureus Newman [6], partner 2.5 µg/mL	0.0341	0.0356	0.0427	–

fitness, one replicate
Details	first compound 0.125 µg/mL	first compound 0.25 µg/mL	first compound 0.5 µg/mL	first compound 1 µg/mL	first compound 2 µg/mL
B. subtilis 168 [4], partner 0.00775 µg/mL	–	–	0.831	0.567	0.0141
B. subtilis 168 [4], partner 0.0155 µg/mL	–	–	0.714	0.324	0.0276
B. subtilis 168 [4], partner 0.031 µg/mL	–	–	0.516	0.153	0.0097
S. aureus DSM 20231 [5], partner 0.039 µg/mL	0.725	0.724	0.589	–	–
S. aureus Newman [6], partner 0.039 µg/mL	0.792	0.896	0.786	–	–
S. aureus Newman [6], partner 0.312 µg/mL	0.269	0.241	0.0227	–	–

CC[C@H]1OC(=O)[C@H](C)[C@@H](O[C@H]2C[C@@](C)(OC)[C@@H](O)[C@H](C)O2)[C@H](C)[C@@H](O[C@@H]2O[C@H](C)C[C@H](N(C)C)[C@H]2O)[C@](C)(O)C[C@@H](C)CN(C)[C@H](C)[C@@H](O)[C@]1(C)O [Azithromycin] + COc1c(N2C[C@@H]3CCCN[C@@H]3C2)c(F)cc2c(=O)c(C(=O)O)cn(C3CC3)c12 [Moxifloxacin]
Details	Bliss interaction score
B. subtilis 168 [1]	0.0244
S. aureus DSM 20231 [2]	0.0773
S. aureus Newman [3]	0.118
S. pneumoniae D39V	0.0652

fitness
Details	first compound 0.125 µg/mL	first compound 0.25 µg/mL	first compound 0.5 µg/mL	first compound 1 µg/mL	first compound 2 µg/mL
B. subtilis 168 [4], partner 0.0312 µg/mL	–	–	0.0678	0.0582	0.0414
B. subtilis 168 [4], partner 0.0625 µg/mL	–	0.0511	0.0366	0.0237	0.0289
B. subtilis 168 [4], partner 0.125 µg/mL	–	0.0301	0.0372	0.0336	0.02
B. subtilis 168 [4], partner 2 µg/mL	–	0.027	0.0186	0.0208	–
B. subtilis 168 [4], partner 4 µg/mL	–	0.0147	0.0272	0.0194	–
B. subtilis 168 [4], partner 8 µg/mL	–	0.0347	0.042	0.0214	–
S. aureus DSM 20231 [5], partner 0.0075 µg/mL	0.727	0.747	–	–	–
S. aureus DSM 20231 [5], partner 0.015 µg/mL	0.687	0.772	0.592	–	–
S. aureus DSM 20231 [5], partner 0.03 µg/mL	0.656	0.737	0.556	–	–
S. aureus Newman [6], partner 0.0075 µg/mL	0.717	0.723	–	–	–
S. aureus Newman [6], partner 0.015 µg/mL	0.666	–	0.415	–	–
S. aureus Newman [6], partner 0.03 µg/mL	–	–	0.307	–	–

fitness, S. aureus DSM 20231 [5], one replicate
Details	first compound 0.125 µg/mL	first compound 0.25 µg/mL	first compound 0.5 µg/mL
partner 0.06 µg/mL	0.633	0.623	0.587
partner 0.12 µg/mL	0.528	0.559	0.452

— the supplement of paper PMC10627819
